Read-outs that look alike come from different tables or passages of the source.

From publication doi:10.1101/2024.08.19.608619, “Discovery of potent SARS-CoV-2 nsp3 macrodomain inhibitors uncovers lack of translation to cellular antiviral response” (bioRxiv, 2024) come the findings set out here.

Assay [1] has as its target T1, SARS-CoV-2 nsp3-mac1 (Severe acute respiratory syndrome coronavirus 2, UniProt P0DTD1). Put plainly: biochemical. It counts as biochemical. The note with it: SARS-CoV-2 nsp3 macrodomain TR-FRET single point, concentration 50.0 uM.
Assay [2] has as its target T1, SARS-CoV-2 nsp3-mac1. Put plainly: biochemical. Also noted: SARS-CoV-2 nsp3 macrodomain TR-FRET single point, per cent inhibition, n=2.

For `c1ccc([C@@H](CNc2ncnc3n[nH]cc23)N2CCOCC2)cc1` [ASAP-0000001], the perc_inhibition_mean on SARS-CoV-2 nsp3-mac1 [1] is recorded as -0.781%. Further, on SARS-CoV-2 nsp3-mac1 [2] (read-out: perc_inhibition_mean, batch_name=ASAP-0000001-001), the inhibition at 50 µM was -0.781%.
`COc1cccc(Cl)c1CNc1ncnc2[nH]ncc12` [ASAP-0000002]: the perc_inhibition_mean on SARS-CoV-2 nsp3-mac1 [1] is reported as -1.826%. In addition, at SARS-CoV-2 nsp3-mac1 [2] (read-out: perc_inhibition_mean, batch_name=ASAP-0000002-001), the inhibition at 50 µM was -1.83%.
`c1ccc2sc(CCNc3ncnc4nc[nH]c34)nc2c1` [ASAP-0000003]: on SARS-CoV-2 nsp3-mac1 [1], the perc_inhibition_mean is recorded as -4.211%. Also, the inhibition at 50 µM on SARS-CoV-2 nsp3-mac1 [2] (read-out: perc_inhibition_mean, batch_name=ASAP-0000003-001) is -4.21%.
In the case of `CC(C)(CCNc1ncnc2[nH]ccc12)S(C)(=O)=O` [ASAP-0000004], the perc_inhibition_mean on SARS-CoV-2 nsp3-mac1 [1] turned out to be 0.75%. In addition, the inhibition at 50 µM on SARS-CoV-2 nsp3-mac1 [2] (read-out: perc_inhibition_mean, batch_name=ASAP-0000004-001) came out at 0.75%.
Consider `C=CCn1c(Sc2ncnc3[nH]ccc23)nc2sccc2c1=O` [ASAP-0000005], for which, at SARS-CoV-2 nsp3-mac1 [1], the perc_inhibition_mean turned out to be 6.305%. In addition, the inhibition at 50 µM at SARS-CoV-2 nsp3-mac1 [2] (read-out: perc_inhibition_mean, batch_name=ASAP-0000005-001) was determined as 6.3%.
As to `c1nc(N2CC[C@@H](n3cncn3)C2)c2cc[nH]c2n1` [ASAP-0000006], the perc_inhibition_mean at SARS-CoV-2 nsp3-mac1 [1] is listed as -1.543%. The inhibition at 50 µM at SARS-CoV-2 nsp3-mac1 [2] (read-out: perc_inhibition_mean, batch_name=ASAP-0000006-001) is -1.54%.
With `c1ccc(CN2CCO[C@@H](CNc3ncnc4nc[nH]c34)C2)cc1` [ASAP-0000007], at SARS-CoV-2 nsp3-mac1 [1], the perc_inhibition_mean is reported as -2.441%. Besides, at SARS-CoV-2 nsp3-mac1 [2] (read-out: perc_inhibition_mean, batch_name=ASAP-0000007-001), the inhibition at 50 µM was -2.44%.
Turning to `CC(C)NC(=O)[C@@H]1CCCN(c2ncnc3[nH]ccc23)C1` [ASAP-0000008], the perc_inhibition_mean on SARS-CoV-2 nsp3-mac1 [1] was found to be 1.78%. Besides, the inhibition at 50 µM on SARS-CoV-2 nsp3-mac1 [2] (read-out: perc_inhibition_mean, batch_name=ASAP-0000008-001) is 1.78%.
Regarding `c1ccc(OC[C@@H]2CCCN2c2ncnc3[nH]ccc23)cc1` [ASAP-0000009], the perc_inhibition_mean at SARS-CoV-2 nsp3-mac1 [1] was -0.466%. At SARS-CoV-2 nsp3-mac1 [2] (read-out: perc_inhibition_mean, batch_name=ASAP-0000009-001), the inhibition at 50 µM is -0.466%.
As for `O=C(Nc1cnc2[nH]ncc2c1)c1noc2c1CCCC2` [ASAP-0000010], on SARS-CoV-2 nsp3-mac1 [1], the perc_inhibition_mean is -1.398%. For the same compound, the inhibition at 50 µM at SARS-CoV-2 nsp3-mac1 [2] (read-out: perc_inhibition_mean, batch_name=ASAP-0000010-001) is -1.4%.
Consider `O=S(=O)(Nc1cnc2[nH]ncc2c1)c1cnn(C2CCCC2)c1` [ASAP-0000011], for which the perc_inhibition_mean on SARS-CoV-2 nsp3-mac1 [1] worked out at 0.415%. Further, at SARS-CoV-2 nsp3-mac1 [2] (read-out: perc_inhibition_mean, batch_name=ASAP-0000011-001), the inhibition at 50 µM came to 0.415%.
For the compound `O=C(Nc1cnc2[nH]ncc2c1)c1ccccc1CN1CCOCC1` [ASAP-0000012], at SARS-CoV-2 nsp3-mac1 [1], the perc_inhibition_mean is on record as -3.239%. On SARS-CoV-2 nsp3-mac1 [2] (read-out: perc_inhibition_mean, batch_name=ASAP-0000012-001), the inhibition at 50 µM is -3.24%.
Turning to `Cc1cnc(CCNc2ncnc3[nH]ncc23)c(C)c1` [ASAP-0000013], the perc_inhibition_mean on SARS-CoV-2 nsp3-mac1 [1] came to 4.342%. The inhibition at 50 µM at SARS-CoV-2 nsp3-mac1 [2] (read-out: perc_inhibition_mean, batch_name=ASAP-0000013-001) was found to be 4.34%.
On to `Cc1cccc(OCCNc2ncnc3nc[nH]c23)c1` [ASAP-0000014], for which, on SARS-CoV-2 nsp3-mac1 [1], the perc_inhibition_mean was 3.91%. For the same compound, at SARS-CoV-2 nsp3-mac1 [2] (read-out: perc_inhibition_mean, batch_name=ASAP-0000014-001), the inhibition at 50 µM was found to be 3.91%.
In the case of `Fc1ccc(OC(F)F)c(CNc2cnc3[nH]ncc3c2)c1` [ASAP-0000015], the perc_inhibition_mean on SARS-CoV-2 nsp3-mac1 [1] is -6.672%. Further, the inhibition at 50 µM at SARS-CoV-2 nsp3-mac1 [2] (read-out: perc_inhibition_mean, batch_name=ASAP-0000015-002) was -6.67%.
As to `O=C(Nc1cnc2[nH]ncc2c1)C1CCN(c2ccc3nncn3n2)CC1` [ASAP-0000016], the perc_inhibition_mean on SARS-CoV-2 nsp3-mac1 [1] is on record as 16.966%. Moreover, the inhibition at 50 µM on SARS-CoV-2 nsp3-mac1 [2] (read-out: perc_inhibition_mean, batch_name=ASAP-0000016-001) turned out to be 17%.
Take `NS(=O)(=O)N1CCCN(c2ncnc3[nH]c(I)cc23)CC1` [ASAP-0000017]: at SARS-CoV-2 nsp3-mac1 [1], the perc_inhibition_mean was 2.291%. At SARS-CoV-2 nsp3-mac1 [2] (read-out: perc_inhibition_mean, batch_name=ASAP-0000017-001), the inhibition at 50 µM worked out at 2.29%.
Regarding `Cc1ccc(S(=O)(=O)Nc2ccccc2F)cc1C(=O)Nc1cnc2[nH]ncc2c1` [ASAP-0000018], the perc_inhibition_mean on SARS-CoV-2 nsp3-mac1 [1] was 0.764%. In addition, on SARS-CoV-2 nsp3-mac1 [2] (read-out: perc_inhibition_mean, batch_name=ASAP-0000018-001), the inhibition at 50 µM was 0.764%.
On to `CNC(=O)c1cccc(CNC(=O)c2ncnc3[nH]ccc23)c1` [ASAP-0000019], for which the perc_inhibition_mean at SARS-CoV-2 nsp3-mac1 [1] is reported as -5.906%. Moreover, on SARS-CoV-2 nsp3-mac1 [2] (read-out: perc_inhibition_mean, batch_name=ASAP-0000019-001), the inhibition at 50 µM is -5.91%.
As to `Cc1[nH]c2ncnc(NC(=O)C3CCC(F)(F)CC3)c2c1C` [ASAP-0000020], at SARS-CoV-2 nsp3-mac1 [1], the perc_inhibition_mean worked out at 2.148%. In addition, the inhibition at 50 µM on SARS-CoV-2 nsp3-mac1 [2] (read-out: perc_inhibition_mean, batch_name=ASAP-0000020-001) was determined as 2.15%.
As to `Fc1ccc(Oc2cc(CNc3ncnc4nc[nH]c34)ccn2)cc1` [ASAP-0000021], the perc_inhibition_mean at SARS-CoV-2 nsp3-mac1 [1] is given as 2.011%. Besides, the inhibition at 50 µM on SARS-CoV-2 nsp3-mac1 [2] (read-out: perc_inhibition_mean, batch_name=ASAP-0000021-001) was determined as 2.01%.
In the case of `c1cc(CNc2cnc3[nH]ncc3c2)cc(-c2ccncc2)c1` [ASAP-0000022], the perc_inhibition_mean at SARS-CoV-2 nsp3-mac1 [1] is recorded as -17.179%. Further, the inhibition at 50 µM at SARS-CoV-2 nsp3-mac1 [2] (read-out: perc_inhibition_mean, batch_name=ASAP-0000022-001) was -17.2%.
